From the NIST ThermoML archive (doi:10.1016/j.tca.2016.08.008)

Test: molar heat capacity at constant pressure
Details: 101.33 kPa, Metastable crystal

O=P([O-])([O-])[O-].[Tb+3] [terbium orthophosphate]
Details	molar heat capacity at constant pressure [J/K/mol]
291.41 K, Vacuum adiabatic calorimetry	108
294.82 K, Vacuum adiabatic calorimetry	108.6
298.47 K, Vacuum adiabatic calorimetry	109.3
300 K, Vacuum adiabatic calorimetry	109.8
302.47 K, Vacuum adiabatic calorimetry	110
307.42 K, Vacuum adiabatic calorimetry	110.9
310 K, Vacuum adiabatic calorimetry	111.5
313.46 K, Vacuum adiabatic calorimetry	112.2
320 K, Vacuum adiabatic calorimetry	113.1
320.4 K, Vacuum adiabatic calorimetry	113.3
325 K, Vacuum adiabatic calorimetry	113.9
327.27 K, Vacuum adiabatic calorimetry	114.3
334.07 K, Vacuum adiabatic calorimetry	115.4
340 K, Small sample (50 mg) DSC	116.3
340.79 K, Vacuum adiabatic calorimetry	116.6
347.44 K, Vacuum adiabatic calorimetry	117.5
360 K, Small sample (50 mg) DSC	119
380 K, Small sample (50 mg) DSC	121.5
400 K, Small sample (50 mg) DSC	123.7
420 K, Small sample (50 mg) DSC	125.6
433.9 K, Small sample (50 mg) DSC	128.2
438.9 K, Small sample (50 mg) DSC	128.4
440 K, Small sample (50 mg) DSC	127.4
443.9 K, Small sample (50 mg) DSC	128.3
448.9 K, Small sample (50 mg) DSC	128.3
453.9 K, Small sample (50 mg) DSC	128.3
458.9 K, Small sample (50 mg) DSC	128.5
460 K, Small sample (50 mg) DSC	129
463.9 K, Small sample (50 mg) DSC	128.6
468.9 K, Small sample (50 mg) DSC	129
473.9 K, Small sample (50 mg) DSC	129.1
478.9 K, Small sample (50 mg) DSC	129.3
480 K, Small sample (50 mg) DSC	130.4
483.9 K, Small sample (50 mg) DSC	129.7
488.9 K, Small sample (50 mg) DSC	130.2
493.9 K, Small sample (50 mg) DSC	130.7
498.9 K, Small sample (50 mg) DSC	131.4
500 K, Small sample (50 mg) DSC	131.7
503.9 K, Small sample (50 mg) DSC	131.7
508.9 K, Small sample (50 mg) DSC	132.1
513.9 K, Small sample (50 mg) DSC	132.7
518.9 K, Small sample (50 mg) DSC	132.9
520 K, Small sample (50 mg) DSC	132.9
523.9 K, Small sample (50 mg) DSC	133.1
528.9 K, Small sample (50 mg) DSC	133.7
533.9 K, Small sample (50 mg) DSC	134.6
538.9 K, Small sample (50 mg) DSC	135.3
540 K, Small sample (50 mg) DSC	134
543.9 K, Small sample (50 mg) DSC	135.7
548.9 K, Small sample (50 mg) DSC	136.1
553.9 K, Small sample (50 mg) DSC	136.5
558.9 K, Small sample (50 mg) DSC	136.9
560 K, Small sample (50 mg) DSC	135
563.9 K, Small sample (50 mg) DSC	137.2
568.9 K, Small sample (50 mg) DSC	137.5
573.9 K, Small sample (50 mg) DSC	138
578.9 K, Small sample (50 mg) DSC	138.3
580 K, Small sample (50 mg) DSC	135.8
583.9 K, Small sample (50 mg) DSC	138.2
588.9 K, Small sample (50 mg) DSC	138.1
593.9 K, Small sample (50 mg) DSC	138.4
598.9 K, Small sample (50 mg) DSC	138.7
600 K, Small sample (50 mg) DSC	136.7
603.9 K, Small sample (50 mg) DSC	138.6
608.9 K, Small sample (50 mg) DSC	138.7
613.9 K, Small sample (50 mg) DSC	138.4
618.9 K, Small sample (50 mg) DSC	138.5
620 K, Small sample (50 mg) DSC	137.4
623.9 K, Small sample (50 mg) DSC	138.6
628.9 K, Small sample (50 mg) DSC	138.4
633.9 K, Small sample (50 mg) DSC	136.7
638.9 K, Small sample (50 mg) DSC	135.8
640 K, Small sample (50 mg) DSC	138.1
643.9 K, Small sample (50 mg) DSC	135.7
648.9 K, Small sample (50 mg) DSC	135.9
653.9 K, Small sample (50 mg) DSC	136.3
658.9 K, Small sample (50 mg) DSC	136.4
660 K, Small sample (50 mg) DSC	138.7
663.9 K, Small sample (50 mg) DSC	136.8
668.9 K, Small sample (50 mg) DSC	136.7
673.9 K, Small sample (50 mg) DSC	136.7
678.9 K, Small sample (50 mg) DSC	136.8
680 K, Small sample (50 mg) DSC	139.3
683.9 K, Small sample (50 mg) DSC	136.8
688.9 K, Small sample (50 mg) DSC	136.9
693.9 K, Small sample (50 mg) DSC	137.1
698.9 K, Small sample (50 mg) DSC	137.5
700 K, Small sample (50 mg) DSC	139.9
703.9 K, Small sample (50 mg) DSC	138
708.9 K, Small sample (50 mg) DSC	138.4
713.9 K, Small sample (50 mg) DSC	138.9
718.9 K, Small sample (50 mg) DSC	139.3
720 K, Small sample (50 mg) DSC	140.4
723.9 K, Small sample (50 mg) DSC	139.1
728.9 K, Small sample (50 mg) DSC	139.3
733.9 K, Small sample (50 mg) DSC	139.2
738.9 K, Small sample (50 mg) DSC	139.5
740 K, Small sample (50 mg) DSC	140.8
743.9 K, Small sample (50 mg) DSC	139.8
748.9 K, Small sample (50 mg) DSC	140.3
753.9 K, Small sample (50 mg) DSC	140.6
758.9 K, Small sample (50 mg) DSC	141.1
760 K, Small sample (50 mg) DSC	141.2
763.9 K, Small sample (50 mg) DSC	141.3
768.9 K, Small sample (50 mg) DSC	141.7
773.9 K, Small sample (50 mg) DSC	141.7
778.9 K, Small sample (50 mg) DSC	141.7
780 K, Small sample (50 mg) DSC	141.6
783.9 K, Small sample (50 mg) DSC	141.5
788.9 K, Small sample (50 mg) DSC	141.5
793.9 K, Small sample (50 mg) DSC	141.8
798.9 K, Small sample (50 mg) DSC	142.4
800 K, Small sample (50 mg) DSC	142
803.9 K, Small sample (50 mg) DSC	142.5
808.9 K, Small sample (50 mg) DSC	142.6
813.9 K, Small sample (50 mg) DSC	142.7
818.9 K, Small sample (50 mg) DSC	143.1
820 K, Small sample (50 mg) DSC	142.4
823.9 K, Small sample (50 mg) DSC	143
828.9 K, Small sample (50 mg) DSC	142.9
833.9 K, Small sample (50 mg) DSC	143.1
838.9 K, Small sample (50 mg) DSC	142.9
840 K, Small sample (50 mg) DSC	142.7
843.9 K, Small sample (50 mg) DSC	143.2
848.9 K, Small sample (50 mg) DSC	142.9
853.9 K, Small sample (50 mg) DSC	142.8
858.9 K, Small sample (50 mg) DSC	142.7
860 K, Small sample (50 mg) DSC	143
863.9 K, Small sample (50 mg) DSC	142.4
868.9 K, Small sample (50 mg) DSC	142
873.9 K, Small sample (50 mg) DSC	141.5
878.9 K, Small sample (50 mg) DSC	141.9
880 K, Small sample (50 mg) DSC	143.3
883.9 K, Small sample (50 mg) DSC	141.8
888.9 K, Small sample (50 mg) DSC	141.7
893.9 K, Small sample (50 mg) DSC	141.6
898.9 K, Small sample (50 mg) DSC	141.8
900 K, Small sample (50 mg) DSC	143.6
903.9 K, Small sample (50 mg) DSC	141.5
908.9 K, Small sample (50 mg) DSC	141.4
913.9 K, Small sample (50 mg) DSC	141.7
918.9 K, Small sample (50 mg) DSC	141.8
920 K, Small sample (50 mg) DSC	143.8
923.9 K, Small sample (50 mg) DSC	142.1
928.9 K, Small sample (50 mg) DSC	142.7
933.9 K, Small sample (50 mg) DSC	143
938.9 K, Small sample (50 mg) DSC	142.9
940 K, Small sample (50 mg) DSC	144
943.9 K, Small sample (50 mg) DSC	142.4
948.9 K, Small sample (50 mg) DSC	142.6
953.9 K, Small sample (50 mg) DSC	142.6
958.9 K, Small sample (50 mg) DSC	143.1
960 K, Small sample (50 mg) DSC	144.3
963.9 K, Small sample (50 mg) DSC	142.7
968.9 K, Small sample (50 mg) DSC	142.8
973.9 K, Small sample (50 mg) DSC	142.8
978.9 K, Small sample (50 mg) DSC	142.6
980 K, Small sample (50 mg) DSC	144.5
983.9 K, Small sample (50 mg) DSC	142.5
988.9 K, Small sample (50 mg) DSC	142.5
993.9 K, Small sample (50 mg) DSC	142.6
998.9 K, Small sample (50 mg) DSC	142.9
1000 K, Small sample (50 mg) DSC	144.7
1003.9 K, Small sample (50 mg) DSC	143
1008.9 K, Small sample (50 mg) DSC	143.3
1009 K, Small sample (50 mg) DSC	144.8
